Converted amounts (≈) assume the structure as drawn.
Test system: Histophilus somni
Assay: minimum inhibitory concentration (MIC)
Protocol: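 Broth microdilution MIC (Sensititre BOPO7F bovine plate, CLSI methods) of 19 antimicrobials against field isolates of P. multocida, M. haemolytica, H. somni (deep nasopharyngeal swabs) and E. coli, Enterococcus spp. (rectal swabs) from weaned dairy heifers. Incubation 16-24 h at 35 C. MIC is the lowest concentration preventing visible growth. Values with <= or > lie at the tested range limits. Trimethoprim-sulfamethoxazole is given as the trimethoprim component of a 1:19 mixture.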

CC1(C)S[C@@H]2[C@H](NC(=O)[C@H](N)c3ccccc3)C(=O)N2[C@H]1C(=O)O [Ampicillin]
Settings	minimum inhibitory concentration [µg/mL]
isolate (source animal id): 3	≤ 0.25
isolate (source animal id): 4	0.5 (≈ 1.43 µM)
isolate (source animal id): 7	≤ 0.25
isolate (source animal id): 14	≤ 0.25
isolate (source animal id): 15	≤ 0.25
isolate (source animal id): 17	≤ 0.25
isolate (source animal id): 18	≤ 0.25
isolate (source animal id): 20	≤ 0.25
isolate (source animal id): 23	≤ 0.25
isolate (source animal id): 45	≤ 0.25
isolate (source animal id): 53	≤ 0.25
isolate (source animal id): 83	≤ 0.25
isolate (source animal id): 88	≤ 0.25
isolate (source animal id): 92	≤ 0.25
isolate (source animal id): 93	≤ 0.25
isolate (source animal id): 99	≤ 0.25
isolate (source animal id): 100	≤ 0.25
isolate (source animal id): 105	≤ 0.25
isolate (source animal id): 107	≤ 0.25
isolate (source animal id): 108	≤ 0.25
isolate (source animal id): 109	≤ 0.25
isolate (source animal id): 110	≤ 0.25
isolate (source animal id): 117	≤ 0.25
isolate (source animal id): 121	≤ 0.25
isolate (source animal id): 123	≤ 0.25
isolate (source animal id): 124	≤ 0.25
isolate (source animal id): 127	≤ 0.25
isolate (source animal id): 128	≤ 0.25
isolate (source animal id): 130	> 16
isolate (source animal id): 132	≤ 0.25
isolate (source animal id): 135	≤ 0.25
isolate (source animal id): 140	≤ 0.25
isolate (source animal id): 141	≤ 0.25
isolate (source animal id): 142	≤ 0.25
isolate (source animal id): 144	≤ 0.25
isolate (source animal id): 146	≤ 0.25
isolate (source animal id): 147	≤ 0.25
isolate (source animal id): 151	≤ 0.25
isolate (source animal id): 153	≤ 0.25
isolate (source animal id): 154	≤ 0.25
isolate (source animal id): 156	≤ 0.25
isolate (source animal id): 157	≤ 0.25
isolate (source animal id): 176	≤ 0.25
isolate (source animal id): 183	≤ 0.25
isolate (source animal id): 186	≤ 0.25
isolate (source animal id): 196	≤ 0.25
isolate (source animal id): 198	≤ 0.25
isolate (source animal id): 200	≤ 0.25
isolate (source animal id): 206	≤ 0.25
isolate (source animal id): 208	≤ 0.25
isolate (source animal id): 210	≤ 0.25
isolate (source animal id): 212	≤ 0.25
isolate (source animal id): 215	≤ 0.25
isolate (source animal id): 216	≤ 0.25
isolate (source animal id): 218	≤ 0.25
isolate (source animal id): 219	≤ 0.25
isolate (source animal id): 224	≤ 0.25
isolate (source animal id): 228	≤ 0.25
isolate (source animal id): 230	≤ 0.25
isolate (source animal id): 233	≤ 0.25
isolate (source animal id): 238	≤ 0.25
isolate (source animal id): 239	≤ 0.25
isolate (source animal id): 241	≤ 0.25
isolate (source animal id): 242	≤ 0.25
isolate (source animal id): 243	≤ 0.25
isolate (source animal id): 245	≤ 0.25
isolate (source animal id): 246	≤ 0.25
isolate (source animal id): 247	≤ 0.25
isolate (source animal id): 248	≤ 0.25
isolate (source animal id): 250	≤ 0.25
isolate (source animal id): 251	≤ 0.25
isolate (source animal id): 252	≤ 0.25
isolate (source animal id): 254	≤ 0.25
isolate (source animal id): 258	≤ 0.25
isolate (source animal id): 259	≤ 0.25
isolate (source animal id): 262	≤ 0.25
isolate (source animal id): 264	≤ 0.25
isolate (source animal id): 265	4 (≈ 11.4 µM)
isolate (source animal id): 266	≤ 0.25
isolate (source animal id): 267	≤ 0.25
isolate (source animal id): 269	≤ 0.25
isolate (source animal id): 271	≤ 0.25
isolate (source animal id): 272	4 (≈ 11.4 µM)
isolate (source animal id): 274	≤ 0.25
isolate (source animal id): 276	≤ 0.25
isolate (source animal id): 278	≤ 0.25
isolate (source animal id): 280	1 (≈ 2.86 µM)
isolate (source animal id): 281	≤ 0.25
isolate (source animal id): 283	≤ 0.25
isolate (source animal id): 288	≤ 0.25
isolate (source animal id): 291	≤ 0.25
isolate (source animal id): 292	≤ 0.25
isolate (source animal id): 296	≤ 0.25
isolate (source animal id): 306	≤ 0.25
isolate (source animal id): 336	≤ 0.25
isolate (source animal id): 337	≤ 0.25
isolate (source animal id): 341	≤ 0.25

CO/N=C(\C(=O)N[C@@H]1C(=O)N2C(C(=O)O)=C(CSC(=O)c3ccco3)CS[C@H]12)c1csc(N)n1 [Ceftiofur]
Settings	minimum inhibitory concentration [µg/mL]
isolate (source animal id): 3	≤ 0.25
isolate (source animal id): 4	≤ 0.25
isolate (source animal id): 7	≤ 0.25
isolate (source animal id): 14	≤ 0.25
isolate (source animal id): 15	≤ 0.25
isolate (source animal id): 17	≤ 0.25
isolate (source animal id): 18	≤ 0.25
isolate (source animal id): 20	≤ 0.25
isolate (source animal id): 23	≤ 0.25
isolate (source animal id): 45	≤ 0.25
isolate (source animal id): 53	≤ 0.25
isolate (source animal id): 83	≤ 0.25
isolate (source animal id): 88	≤ 0.25
isolate (source animal id): 92	≤ 0.25
isolate (source animal id): 93	≤ 0.25
isolate (source animal id): 99	≤ 0.25
isolate (source animal id): 100	≤ 0.25
isolate (source animal id): 105	≤ 0.25
isolate (source animal id): 107	≤ 0.25
isolate (source animal id): 108	≤ 0.25
isolate (source animal id): 109	≤ 0.25
isolate (source animal id): 110	≤ 0.25
isolate (source animal id): 117	≤ 0.25
isolate (source animal id): 121	≤ 0.25
isolate (source animal id): 123	≤ 0.25
isolate (source animal id): 124	≤ 0.25
isolate (source animal id): 127	≤ 0.25
isolate (source animal id): 128	≤ 0.25
isolate (source animal id): 130	≤ 0.25
isolate (source animal id): 132	≤ 0.25
isolate (source animal id): 135	≤ 0.25
isolate (source animal id): 140	≤ 0.25
isolate (source animal id): 141	≤ 0.25
isolate (source animal id): 142	≤ 0.25
isolate (source animal id): 144	≤ 0.25
isolate (source animal id): 146	≤ 0.25
isolate (source animal id): 147	≤ 0.25
isolate (source animal id): 151	≤ 0.25
isolate (source animal id): 153	≤ 0.25
isolate (source animal id): 154	≤ 0.25
isolate (source animal id): 156	≤ 0.25
isolate (source animal id): 157	≤ 0.25
isolate (source animal id): 176	≤ 0.25
isolate (source animal id): 183	≤ 0.25
isolate (source animal id): 186	≤ 0.25
isolate (source animal id): 196	≤ 0.25
isolate (source animal id): 198	≤ 0.25
isolate (source animal id): 200	≤ 0.25
isolate (source animal id): 206	≤ 0.25
isolate (source animal id): 208	≤ 0.25
isolate (source animal id): 210	≤ 0.25
isolate (source animal id): 212	≤ 0.25
isolate (source animal id): 215	≤ 0.25
isolate (source animal id): 216	≤ 0.25
isolate (source animal id): 218	≤ 0.25
isolate (source animal id): 219	≤ 0.25
isolate (source animal id): 224	≤ 0.25
isolate (source animal id): 228	≤ 0.25
isolate (source animal id): 230	≤ 0.25
isolate (source animal id): 233	≤ 0.25
isolate (source animal id): 238	≤ 0.25
isolate (source animal id): 239	≤ 0.25
isolate (source animal id): 241	≤ 0.25
isolate (source animal id): 242	≤ 0.25
isolate (source animal id): 243	≤ 0.25
isolate (source animal id): 245	≤ 0.25
isolate (source animal id): 246	≤ 0.25
isolate (source animal id): 247	≤ 0.25
isolate (source animal id): 248	≤ 0.25
isolate (source animal id): 250	≤ 0.25
isolate (source animal id): 251	≤ 0.25
isolate (source animal id): 252	≤ 0.25
isolate (source animal id): 254	≤ 0.25
isolate (source animal id): 258	≤ 0.25
isolate (source animal id): 259	≤ 0.25
isolate (source animal id): 262	≤ 0.25
isolate (source animal id): 264	≤ 0.25
isolate (source animal id): 265	≤ 0.25
isolate (source animal id): 266	≤ 0.25
isolate (source animal id): 267	≤ 0.25
isolate (source animal id): 269	≤ 0.25
isolate (source animal id): 271	≤ 0.25
isolate (source animal id): 272	≤ 0.25
isolate (source animal id): 274	≤ 0.25
isolate (source animal id): 276	≤ 0.25
isolate (source animal id): 278	≤ 0.25
isolate (source animal id): 280	≤ 0.25
isolate (source animal id): 281	≤ 0.25
isolate (source animal id): 283	≤ 0.25
isolate (source animal id): 288	≤ 0.25
isolate (source animal id): 291	≤ 0.25
isolate (source animal id): 292	≤ 0.25
isolate (source animal id): 296	≤ 0.25
isolate (source animal id): 306	≤ 0.25
isolate (source animal id): 336	≤ 0.25
isolate (source animal id): 337	≤ 0.25
isolate (source animal id): 341	≤ 0.25

CN1C[C@@H]2C[C@H]1CN2c1cc2c(cc1F)c(=O)c(C(=O)O)cn2C1CC1 [Danofloxacin]
Settings	minimum inhibitory concentration [µg/mL]
isolate (source animal id): 3	≤ 0.12
isolate (source animal id): 4	≤ 0.12
isolate (source animal id): 7	≤ 0.12
isolate (source animal id): 14	≤ 0.12
isolate (source animal id): 15	≤ 0.12
isolate (source animal id): 17	≤ 0.12
isolate (source animal id): 18	≤ 0.12
isolate (source animal id): 20	≤ 0.12
isolate (source animal id): 23	≤ 0.12
isolate (source animal id): 45	≤ 0.12
isolate (source animal id): 53	≤ 0.12
isolate (source animal id): 83	≤ 0.12
isolate (source animal id): 88	≤ 0.12
isolate (source animal id): 92	≤ 0.12
isolate (source animal id): 93	≤ 0.12
isolate (source animal id): 99	≤ 0.12
isolate (source animal id): 100	≤ 0.12
isolate (source animal id): 105	≤ 0.12
isolate (source animal id): 107	≤ 0.12
isolate (source animal id): 108	≤ 0.12
isolate (source animal id): 109	≤ 0.12
isolate (source animal id): 110	≤ 0.12
isolate (source animal id): 117	≤ 0.12
isolate (source animal id): 121	≤ 0.12
isolate (source animal id): 123	≤ 0.12
isolate (source animal id): 124	≤ 0.12
isolate (source animal id): 127	≤ 0.12
isolate (source animal id): 128	≤ 0.12
isolate (source animal id): 130	≤ 0.12
isolate (source animal id): 132	≤ 0.12
isolate (source animal id): 135	≤ 0.12
isolate (source animal id): 140	≤ 0.12
isolate (source animal id): 141	≤ 0.12
isolate (source animal id): 142	≤ 0.12
isolate (source animal id): 144	≤ 0.12
isolate (source animal id): 146	≤ 0.12
isolate (source animal id): 147	≤ 0.12
isolate (source animal id): 151	≤ 0.12
isolate (source animal id): 153	≤ 0.12
isolate (source animal id): 154	≤ 0.12
isolate (source animal id): 156	≤ 0.12
isolate (source animal id): 157	≤ 0.12
isolate (source animal id): 176	≤ 0.12
isolate (source animal id): 183	≤ 0.12
isolate (source animal id): 186	≤ 0.12
isolate (source animal id): 196	≤ 0.12
isolate (source animal id): 198	≤ 0.12
isolate (source animal id): 200	≤ 0.12
isolate (source animal id): 206	≤ 0.12
isolate (source animal id): 208	≤ 0.12
isolate (source animal id): 210	≤ 0.12
isolate (source animal id): 212	≤ 0.12
isolate (source animal id): 215	≤ 0.12
isolate (source animal id): 216	≤ 0.12
isolate (source animal id): 218	≤ 0.12
isolate (source animal id): 219	≤ 0.12
isolate (source animal id): 224	≤ 0.12
isolate (source animal id): 228	≤ 0.12
isolate (source animal id): 230	≤ 0.12
isolate (source animal id): 233	≤ 0.12
isolate (source animal id): 238	≤ 0.12
isolate (source animal id): 239	≤ 0.12
isolate (source animal id): 241	≤ 0.12
isolate (source animal id): 242	≤ 0.12
isolate (source animal id): 243	≤ 0.12
isolate (source animal id): 245	≤ 0.12
isolate (source animal id): 246	≤ 0.12
isolate (source animal id): 247	≤ 0.12
isolate (source animal id): 248	≤ 0.12
isolate (source animal id): 250	≤ 0.12
isolate (source animal id): 251	≤ 0.12
isolate (source animal id): 252	≤ 0.12
isolate (source animal id): 254	≤ 0.12
isolate (source animal id): 258	≤ 0.12
isolate (source animal id): 259	≤ 0.12
isolate (source animal id): 262	≤ 0.12
isolate (source animal id): 264	≤ 0.12
isolate (source animal id): 265	≤ 0.12
isolate (source animal id): 266	≤ 0.12
isolate (source animal id): 267	≤ 0.12
isolate (source animal id): 269	≤ 0.12
isolate (source animal id): 271	≤ 0.12
isolate (source animal id): 272	≤ 0.12
isolate (source animal id): 274	≤ 0.12
isolate (source animal id): 276	≤ 0.12
isolate (source animal id): 278	≤ 0.12
isolate (source animal id): 280	≤ 0.12
isolate (source animal id): 281	≤ 0.12
isolate (source animal id): 283	≤ 0.12
isolate (source animal id): 288	≤ 0.12
isolate (source animal id): 291	≤ 0.12
isolate (source animal id): 292	≤ 0.12
isolate (source animal id): 296	≤ 0.12
isolate (source animal id): 306	≤ 0.12
isolate (source animal id): 336	≤ 0.12
isolate (source animal id): 337	≤ 0.12
isolate (source animal id): 341	≤ 0.12

From the supplement of paper PMC8612539
